The source of these data is BindingDB's records for doi:10.1007/s00044-011-9593-5 (n/a, 2012).

The assay has as its target Integrase (Human immunodeficiency virus 1, UniProt Q7ZJM1). The experiment in a line: Inhibition of Human immunodeficiency virus 1 integrase strand transfer activity.

Sequence of Integrase (Q7ZJM1 whole entry): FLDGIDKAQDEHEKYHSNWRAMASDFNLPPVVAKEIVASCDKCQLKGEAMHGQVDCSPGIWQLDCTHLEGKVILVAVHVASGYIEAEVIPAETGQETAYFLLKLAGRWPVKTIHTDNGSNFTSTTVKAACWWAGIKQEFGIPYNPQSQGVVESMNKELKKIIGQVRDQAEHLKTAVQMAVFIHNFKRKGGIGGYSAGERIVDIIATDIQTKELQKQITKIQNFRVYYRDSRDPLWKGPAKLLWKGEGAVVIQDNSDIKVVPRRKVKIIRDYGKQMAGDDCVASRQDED

As to `CCN(CC)CCC[C@@H](C)Nc1ccnc2cc(Cl)ccc12` [Aralen], 0.25 nM corresponded to half-maximal inhibition (IC50).
